In patent US20160333419A1, “GENE SIGNATURES ASSOCIATED WITH SENSITIVITY TO MDM2 INHIBITORS” (DAIICHI SANKYO COMPANY, LIMITED, priority 2014, published 2016):

What was measured:
Assay in all cases: Champions TumorGraft model, tumor growth inhibition
Format in all cases: in vivo, mice
[1] = test system: CTG-0201 Melanoma; conditions: 100 mg/kg/dose p.o./qd × 10, TGI evaluation Day 10
Text: (§1) Patient-derived xenograft models (Champions TumorGraftTM; Champions Oncology, Inc., Hackensack, N.J.) were used. Champions TumorGraftsTM provide a highly focused, accelerated translational platform, which is based upon the implantation of primary human tumors in immune-deficient mice followed by propagation of the resulting low-passage Champions TumorGraftsTM in a manner that preserves the biological characteristics of the original human tumor. […] The TumorGraftsTM models allow a comparison of gene expression analysis of patients' cancer samples and Champions TumorGraftTM samples by microarray expression analysis. Large numbers (e.g., 30,000) of genes are analyzed. […] Female immunocompromised nu/nu mice (Harlan) between 6-9 weeks of age were housed on irradiated […]-enriched 1⁄8'' corncob bedding ([…]) in individual HEPA ventilated cages (Innocage® IVC, Innovive USA) and were kept on a 12-hour light-dark cycle at 68-74° F. (20-23° C.) and 30-70% humidity. Animals were fed water ad libitum (reverse osmosis, 2 ppm C12) and an irradiated Test rodent diet (Teklad 2919) consisting of 19% protein, 9% fat, and 4% fiber. Animals were implanted bilaterally in the flank region with tumor fragments harvested from tumored host animals, each implanted from a specific passage lot. Pre-study tumor volumes were recorded for each experiment beginning approximately one week prior to its estimated start date. When tumors reached approximately 125-250 mm^3, animals were matched by tumor volume into treatment and control groups, and dosing was initiated (Day 0). Animals in all studies were tagged and followed individually throughout the experiment. Initial dosing for standard agents began on Day 0; animals in all groups were dosed by weight (0.01 ml per gram; 10 ml/kg). Dose concentration(s), route(s) of administration and schedule(s) for each group are listed in the Experimental Design section, wherein “p.o./qd×10” indicates orally (by mouth) daily for 10 days. The experimental design of the human tumor graft model study is presented below in Table 4. “n” indicates the number of animals per group; “ROA” indicates route of administration of the test agent, i.e., the MDM2i drug. Beginning on Day 0, tumor dimensions were measured twice weekly by digital caliper and data including individual and mean estimated tumor volumes (Mean TV±SEM) were recorded for each group. Tumor volume was calculated using the formula (1): TV=width^2×length×0.52. At study completion, percent tumor growth inhibition (% TGI) values were calculated and reported for each treatment group (T) versus control (C) using initial (i) and final (f) tumor measurements and the formula (2): % TGI=1-Tf-Ti/Cf-C. The tumor growth inhibition (TGI) values on the scheduled dates closest to the last administration are summarized Table 5 below. In this example, the study duration was defined by the tumor size of the vehicle control. In some cases, for example, that of CTG-0213 in Table 5, required a longer time period for the tumor to reach a threshold size. As a result, the test animals treated with the MDM2i Compound B were also left for a longer time period, e.g., 40 days in the case of CTG-0213, without MDM2i treatment. […] Thus, the evaluation of TGI was set to be near the end of the treatment period, such as around Day 7-11 (around Day 9).

[2] = test system: CTG-0501 Melanoma; conditions: 100 mg/kg/dose p.o./qd × 10, TGI evaluation Day 11
Text: as §1

[3] = test system: CTG-0159 NSCLC; conditions: 100 mg/kg/dose p.o./qd × 10, TGI evaluation Day 11
Text: as §1

[4] = test system: CTG-0292 Pancreatic; conditions: 100 mg/kg/dose p.o./qd × 10, TGI evaluation Day 11
Text: as §1

[5] = test system: CTG-0204 Melanoma; conditions: 100 mg/kg/dose p.o./qd × 10, TGI evaluation Day 10
Text: as §1

[6] = test system: CTG-0502 NSCLC; conditions: 100 mg/kg/dose p.o./qd × 10, TGI evaluation Day 10
Text: as §1

[7] = test system: CTG-0213 Melanoma; conditions: 100 mg/kg/dose p.o./qd × 10, TGI evaluation Day 7
Text: as §1

[8] = test system: CTG-0282 Pancreatic; conditions: 100 mg/kg/dose p.o./qd × 10, TGI evaluation Day 11
Text: as §1

[9] = test system: CTG-0069 Colorectal; conditions: 100 mg/kg/dose p.o./qd × 10, TGI evaluation Day 11
Text: as §1

[10] = test system: CTG-0203 Melanoma; conditions: 100 mg/kg/dose p.o./qd × 10, TGI evaluation Day 11
Text: as §1

[11] = test system: CTG-0093 Colorectal; conditions: 100 mg/kg/dose p.o./qd × 10, TGI evaluation Day 9
Text: as §1

[12] = test system: CTG-0500 Melanoma; conditions: 100 mg/kg/dose p.o./qd × 10, TGI evaluation Day 7
Text: as §1

For `CC1(C)CCC2(CC1)N[C@@H](C(=O)N[C@@H]1CC[C@@H](C(N)=O)OC1)[C@H](c1ccnc(Cl)c1F)[C@]21C(=O)Nc2cc(Cl)ccc21` [Compound B, (3′R,4′S,5′R)—N-[(3R,6S)-6-carbamoyltetrahydro-2H-pyran-3-yl]-6″-chloro-4′-(2-chloro-3-fluoropyridin-4-yl)-4,4-dimethyl-2″-oxo-1″,2″-dihydrodispiro[cyclohexane-1,2′-pyrrolidine-3′,3″-indole]-5′-carboxamide], the “% TGI” value [1] was −10%, the “% TGI” value [2] was 101% and the “% TGI” value [3] was −13%. For the same compound, the “% TGI” value [4] was 54%, the “% TGI” value [5] was 51% and the “% TGI” value [6] was 122%. For the same compound, the “% TGI” value [7] was 87%, the “% TGI” value [8] was −30% and the “% TGI” value [9] was 19%. For the same compound, the “% TGI” value [10] was 98%, the “% TGI” value [11] was 53% and the “% TGI” value [12] was 104%.
